In patent publication US11396509B2, “Solid forms of a toll-like receptor modulator” (Gilead Sciences, Inc., priority 2019, dated 2022):

Experiment: Dynamic vapor sorption (moisture sorption/desorption)
Type: physicochemical
Conditions: for change of solid form post dynamic vapor sorption experiment: after DVS experiment up to 95% RH at 25° C.; for water absorbed (dynamic vapor sorption): up to 95% RH at 25° C.
Procedure: Moisture sorption/desorption data were collected on a VTI SGA-100 Vapor Sorption Analyzer. NaCl and PVP were used as calibration standards. Samples were not dried prior to analysis. Sorption and desorption data were collected over a range from 5% to 95% RH at 10% RH increments under a nitrogen purge. The equilibrium criterion used for analysis was less than 0.0100% weight change in 5 minutes with a maximum equilibration time of 3 hours. Weight percentages reported in the data section are relative to the total sample mass introduced prior to equilibration at 5% RH as measured on the instrument.

| change of solid form post dynamic vapor sorption experiment | water absorbed (dynamic vapor sorption) | Compound |
| --- | --- | --- |
| not have changed forms | about 1.1% | CCCC[C@](C)(CO)Nc1nc(N)nc2cc(F)cnc12 [Compound I Gentisic Acid, (R)-2-((2-amino-7-fluoropyrido[3,2-d]pyrimidin-4-yl)amino)-2-methylhexan-1-ol gentisic acid] |
| not have changed forms | about 0.68% | CCCC[C@](C)(CO)Nc1nc(N)nc2cc(F)cnc12 [Compound I Hippuric Acid, (R)-2-((2-amino-7-fluoropyrido[3,2-d]pyrimidin-4-yl)amino)-2-methylhexan-1-ol hippuric acid] |
| not have changed forms | about 1.2% | CCCC[C@](C)(CO)Nc1nc(N)nc2cc(F)cnc12.O=C(O)CCC(=O)O [Compound I Succinic Acid, (R)-2-((2-amino-7-fluoropyrido[3,2-d]pyrimidin-4-yl)amino)-2-methylhexan-1-ol succinic acid] |
